# Where “and” joins values, the source holds several entries; their conditions need not be identical. Equal entries are not always repeated. Entries after “also recorded” stand apart in the source; their conditions may differ.
# Legend:
# VRSA [1] = test: MIC (CLSI broth dilution), agent alone; type: cell-based, Staphylococcus aureus; parameters: unit not given beside the values
# Description: (§1) VISA (strains 92, 95 and 96), VRSA (strains 105 and 106) and E. coli (strain 69717) isolates were also tested. One MSSA was used as a control. All MICs were assessed using CLSI guidelines. Also assessed was the activity of cefazolin, ceftriazone, meropenem, and a piperacillin/tazobactam combination antibiotic. Minimum inhibitory concentration (MIC) is the lowest concentration of an antimicrobial that will inhibit the visible growth of a microorganism after incubation.
# (§2) Antimicrobial Susceptibility Testing: A custom designed panel of antimicrobials was created. The panel included: PEP35, penicillin, piperacillin/tazobactam, cefazolin, ceftriaxone, meropenem, clarithromycin, clindamycin, gentamicin, amikacin, vancomycin, ciprofloxacin, levofloxacin, moxifloxacin, linezolid, trimethoprim/sulfamethoxazole and doxycycline. These agents were obtained as laboratory grade powders from their respective manufacturers. Stock solutions were prepared and dilutions made as described by the Clinical Laboratory Standards Institute (2005 CLSI). Following two subcultures from frozen stock the MICs of the antimicrobial agents for the isolates were determined by the CLSI 2005 approved broth macrodilution method. Briefly, test tubes containing doubling antibiotic dilutions (2 ml per tube) of cation adjusted Mueller-Hinton broth (eg. for Enterobacteriaceae) with or without lysed horse blood (2-5% V/V) [eg. for S. pneumoniae] were inoculated to achieve a final concentration of approximately 5×10^5 CFU/ml and incubated in ambient air for 24 hours prior to reading. Colony counts were performed periodically to confirm inocula. Quality control was performed every two weeks using a variety of ATCC QC organisms including; S. aureus 29213, E. faecalis 29212, E. coli 25922 and P. aeruginosa 27853. For all antimicrobials as well as PEP35, CLSI criteria were used.
# (§3) One MSSA was used as a control. All MICs were assessed using CLSI guidelines.
# [2] = tested on: MRSA, VISA, VRSA and E. coli; test: MIC, agent alone, panel statement; type: cell-based; conditions: versus MRSA, VISA, VRSA and E. coli
# Description: as §1, §2
# E. coli = test: MIC (CLSI broth dilution), agent alone; type: cell-based, Escherichia coli; conditions: agent alone
# Description: as §1, §2
# (§4) One MS SA and ATCC reference strains were used as controls. All MICs were assessed using CLSI guidelines.
# [3] = tested on: MRSA, VISA, VRSA and E. coli; test: Checkerboard assay, panel statement; type: cell-based; conditions: with β-lactams versus MRSA, VISA, VRSA and E. coli
# Description: Checkerboard assays were carried out as described by Bonapace et al.
# Diagnostic Microbiology and Infectious Diseases 2002; 44:363-366. In brief, checkerboard assays were performed in 96 well microtitre trays using an 8-by-8 well configuration. […] 96-well custom designed microtitre plates contained 100 ul/well of cation adjusted Mueller-Hinton broth (eg. for Enterobacteriaceae) with or without lysed horse blood (2-5% V/V) [eg. for S. pneumoniae] and were inoculated to achieve a final concentration of approximately 5×10^5 CFU/ml and incubated in ambient air for 24 hours prior to reading. Colony counts were performed periodically to confirm inocula. Quality control was performed every two weeks using a variety of ATCC QC organisms including; S. pneumoniae 49619, S. aureus 29213, E. faecalis 29212, E. coli 25922 and P. aeruginosa 27853. […] All peptides were assessed for synergy with β-lactams and vancomycin. For all antimicrobials as well as the peptides, CLSI criteria were used.
# The fractional inhibitory concentration index (FIC index) was used to interpret synergy, antagonism or additivity/indifference. FIC index=FIC of drug A+FIC of drug B where:
# The FIC of drug A and drug B was calculated as follows, FIC drug A=MIC of drug A in combination/MIC of drug A alone and FIC of drug B=MIC of drug B in combination/MIC of drug B alone. Synergy was defined as FIC index ≦0.5, additivity/indifference defined as a FIC between 0.5 and 4 and antagonism defined as an FIC index >4.
# The fractional inhibitory concentration index (FIC index) was used to interpret synergy, antagonism or additivity/indifference. FIC index=FIC of drug A+FIC of drug B where the FIC of drug A and drug B was calculated as follows, FIC drug A=MIC of drug A in combination/MIC of drug A alone and FIC of drug B=MIC of drug B in combination/MIC of drug B alone. Synergy was defined as FIC index ≦0.5, additivity/indifference defined as an FIC of between 0.5 and 4 and antagonism defined as an FIC index >4.
# VRSA [4] = test: Antibiotic MIC with fixed concentration of peptide; type: cell-based, Staphylococcus aureus; conditions: VISA and VRSA; Table 13
# Description: as §3
# VISA = test: MIC (CLSI broth dilution), agent alone; type: cell-based, Staphylococcus aureus; parameters: unit: µg/mL
# Description: as §1, §2, §3
# HA-MRSA [5] = test: Antibiotic MIC with fixed concentration of peptide; type: cell-based, Staphylococcus aureus; conditions: HA-MRSA strains; Table 13
# Description: as §3, §4
# CA-MRSA [6] = test: Antibiotic MIC with fixed concentration of peptide; type: cell-based, Staphylococcus aureus; conditions: versus CA-MRSA; Table 13
# Description: as §3, §4
# MSSA = test: MIC (CLSI broth dilution), agent alone; type: cell-based, Staphylococcus aureus; conditions: MSSA 79333, agent alone
# Description: as §1
# as §2, with “The panel included: PEP35, penicillin, piperacillin/tazobactam, cefazolin, ceftriaxone, meropenem, clarithromycin, clindamycin, gentamicin, amikacin, vancomycin, ciprofloxacin, levofloxacin, moxifloxacin, linezolid, trimethoprim/sulfamethoxazole and doxycycline.” left out, “27853.” for “27853. For all antimicrobials as well as PEP35, CLSI criteria were used.”
# as §3, §4
# HA-MRSA [7] = test: MIC (CLSI broth dilution), agent alone; type: cell-based, Staphylococcus aureus; conditions: agent alone
# Description: as §1
# as §2, with “The panel included: PEP35, penicillin, piperacillin/tazobactam, cefazolin, ceftriaxone, meropenem, clarithromycin, clindamycin, gentamicin, amikacin, vancomycin, ciprofloxacin, levofloxacin, moxifloxacin, linezolid, trimethoprim/sulfamethoxazole and doxycycline.” left out, “27853.” for “27853. For all antimicrobials as well as PEP35, CLSI criteria were used.”
# as §3, §4
# CA-MRSA [8] = test: MIC (CLSI broth dilution), agent alone; type: cell-based, Staphylococcus aureus; conditions: agent alone
# Description: as §1
# as §2, with “The panel included: PEP35, penicillin, piperacillin/tazobactam, cefazolin, ceftriaxone, meropenem, clarithromycin, clindamycin, gentamicin, amikacin, vancomycin, ciprofloxacin, levofloxacin, moxifloxacin, linezolid, trimethoprim/sulfamethoxazole and doxycycline.” left out, “27853.” for “27853. For all antimicrobials as well as PEP35, CLSI criteria were used.”
# as §3, §4
sequence,measurement,setting,value
LKQKIKHVVKLKVVVKLRSQLAKKKQS (hybPEP35-1 conservative substitution human peptide variant) [human peptide variant of PEP35 with conservative substitutions],MIC,VRSA [1]; VRSA 105,128/128
same,MIC,"VRSA [1]; VRSA 105, in µg/mL",256 and 128
same,MIC,"VRSA [1]; VRSA 106, in µg/mL",256
same,MIC,"VRSA [1]; VRSA 106, listed as hybPEP35, in µg/mL",128 and 256
same,activity (in words),[2],no activity; also recorded: not active
same,MIC,"E. coli; E. coli 69716, listed as hybPEP35-1, in µg/mL",64
same,MIC,"E. coli; E. coli 69716, listed as hybPEP35, in µg/mL",128 and 64
same,MIC,E. coli; E. coli 70752,64/64
same,MIC,"E. coli; E. coli 70752, in µg/mL",32
same,synergistic activity (in words),[3],synergistic activity
same,synergy with β-lactams (in words),VRSA [4],mild to strong
same,MIC,VISA; VISA 92,>2048/>2048
same,MIC,VISA; VISA 95,>2048/2048
same,MIC,"VISA; VISA 96, in µg/mL",1024
same,MIC,"VISA; VISA 96, listed as hybPEP35, in µg/mL",1024 and 2048
same,synergy with β-lactams (in words),HA-MRSA [5],weak synergy; also recorded: stronger synergy
same,synergy with β-lactams (in words),CA-MRSA [6],Strong synergy
same,MIC,MSSA,128/128
same,MIC,MSSA; in µg/mL,256
same,MIC,"HA-MRSA [7]; HA-MRSA 70798 (USA100/800), in µg/mL",> 2048 and 1024
same,MIC,"HA-MRSA [7]; HA-MRSA 77090 (USA100/800), in µg/mL",1024 and 512
same,MIC,HA-MRSA [7]; HA-MRSA 77098 (USA100/800),≧2048/2048^
same,MIC,CA-MRSA [8]; CA-MRSA 69615 (USA400),1024/1024
same,MIC,CA-MRSA [8]; CA-MRSA 70857 (USA400),1024/1024

# Reference: patent US9751919B2, “Antimicrobial compositions comprising a hyaluronic acid binding peptide and a β-lactam antibiotic” (priority 2012, dated 2017)
